Experimental data published in ChEMBL document CHEMBL4414609, “High-Affinity Alkynyl Bisubstrate Inhibitors of Nicotinamide N-Methyltransferase (NNMT)” (J Med Chem, 2019).

Tests used:
[1] = target: T1, PNMT (phenylethanolamine N-methyltransferase) (Homo sapiens, UniProt P11086); assay: Inhibition of human PNMT expressed in Escherichia coli at 10 uM assessed as reduction in SAH level using DL-normetanephrine as substrate in presence of SAM incubated for 45 mins by LC-MS/MS analysis relative to control; details: recombinant human PNMT expressed in Escherichia coli, probe DL-normetanephrine
T1 sequence (P11086 whole entry): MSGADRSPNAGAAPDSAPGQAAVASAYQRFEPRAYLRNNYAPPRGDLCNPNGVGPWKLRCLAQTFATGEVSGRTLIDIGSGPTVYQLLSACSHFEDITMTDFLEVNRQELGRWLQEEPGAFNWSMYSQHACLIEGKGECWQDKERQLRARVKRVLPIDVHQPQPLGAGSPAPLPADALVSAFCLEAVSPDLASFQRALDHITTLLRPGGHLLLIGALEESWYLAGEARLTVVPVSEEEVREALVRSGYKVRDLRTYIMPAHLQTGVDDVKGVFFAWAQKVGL

[2] = target: T2, COMT (catechol O-methyltransferase) (Homo sapiens, UniProt P21964); assay: Inhibition of human COMT expressed in Escherichia coli at 1 uM assessed as reduction in SAH level using pyrocatechol as substrate in presence of SAM incubated for 15 mins by LC-MS/MS analysis relative to control; details: recombinant human COMT expressed in Escherichia coli, probe pyrocatechol
T2 sequence (P21964 whole entry): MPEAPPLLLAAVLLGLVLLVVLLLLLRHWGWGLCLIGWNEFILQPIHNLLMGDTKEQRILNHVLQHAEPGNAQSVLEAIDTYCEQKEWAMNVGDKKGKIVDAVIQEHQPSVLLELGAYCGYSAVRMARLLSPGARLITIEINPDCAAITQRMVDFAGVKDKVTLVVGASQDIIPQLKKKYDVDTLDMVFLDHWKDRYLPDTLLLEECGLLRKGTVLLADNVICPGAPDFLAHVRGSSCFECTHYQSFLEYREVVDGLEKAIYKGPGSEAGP

[3] = target: T1, PNMT (phenylethanolamine N-methyltransferase); assay: Inhibition of human PNMT expressed in Escherichia coli at 1 uM assessed as reduction in SAH level using DL-normetanephrine as substrate in presence of SAM incubated for 45 mins by LC-MS/MS analysis relative to control; details: recombinant human PNMT expressed in Escherichia coli, probe DL-normetanephrine
[4] = target: Histone-lysine N-methyltransferase ASH1L (Homo sapiens, UniProt Q9NR48); assay: Inhibition of human ASH1L expressed in Escherichia coli assessed as reduction in methylated polynucleosome level using polynucleosome as substrate in presence of [3H] SAM incubated for 15 mins by scintillation counting
[5] = target: Histone-lysine N-methyltransferase, H3 lysine-79 specific (Homo sapiens, UniProt Q8TEK3); assay: Inhibition of human DOT1L expressed in Escherichia coli assessed as reduction in methylated polynucleosome level using polynucleosome as substrate in presence of [3H] SAM incubated for 15 mins by scintillation counting
[6] = target: Histone-lysine N-methyltransferase SETDB1 (Homo sapiens, UniProt Q15047); assay: Inhibition of human SETDB1 expressed in sf9 insect cells assessed as reduction in methylated histone H3 full length level using histone H3 full length as substrate in presence of [3H] SAM incubated for 30 mins by scintillation counting
[7] = target: T3, Histone-lysine N-methyltransferase EHMT2 (Homo sapiens, UniProt Q96KQ7); assay: Inhibition of human G9a expressed in Escherichia coli assessed as reduction in methylated histone H3 full length using histone H3 full length level as substrate in presence of [3H] SAM incubated for 120 mins by scintillation counting
T3 sequence (Q96KQ7 whole entry): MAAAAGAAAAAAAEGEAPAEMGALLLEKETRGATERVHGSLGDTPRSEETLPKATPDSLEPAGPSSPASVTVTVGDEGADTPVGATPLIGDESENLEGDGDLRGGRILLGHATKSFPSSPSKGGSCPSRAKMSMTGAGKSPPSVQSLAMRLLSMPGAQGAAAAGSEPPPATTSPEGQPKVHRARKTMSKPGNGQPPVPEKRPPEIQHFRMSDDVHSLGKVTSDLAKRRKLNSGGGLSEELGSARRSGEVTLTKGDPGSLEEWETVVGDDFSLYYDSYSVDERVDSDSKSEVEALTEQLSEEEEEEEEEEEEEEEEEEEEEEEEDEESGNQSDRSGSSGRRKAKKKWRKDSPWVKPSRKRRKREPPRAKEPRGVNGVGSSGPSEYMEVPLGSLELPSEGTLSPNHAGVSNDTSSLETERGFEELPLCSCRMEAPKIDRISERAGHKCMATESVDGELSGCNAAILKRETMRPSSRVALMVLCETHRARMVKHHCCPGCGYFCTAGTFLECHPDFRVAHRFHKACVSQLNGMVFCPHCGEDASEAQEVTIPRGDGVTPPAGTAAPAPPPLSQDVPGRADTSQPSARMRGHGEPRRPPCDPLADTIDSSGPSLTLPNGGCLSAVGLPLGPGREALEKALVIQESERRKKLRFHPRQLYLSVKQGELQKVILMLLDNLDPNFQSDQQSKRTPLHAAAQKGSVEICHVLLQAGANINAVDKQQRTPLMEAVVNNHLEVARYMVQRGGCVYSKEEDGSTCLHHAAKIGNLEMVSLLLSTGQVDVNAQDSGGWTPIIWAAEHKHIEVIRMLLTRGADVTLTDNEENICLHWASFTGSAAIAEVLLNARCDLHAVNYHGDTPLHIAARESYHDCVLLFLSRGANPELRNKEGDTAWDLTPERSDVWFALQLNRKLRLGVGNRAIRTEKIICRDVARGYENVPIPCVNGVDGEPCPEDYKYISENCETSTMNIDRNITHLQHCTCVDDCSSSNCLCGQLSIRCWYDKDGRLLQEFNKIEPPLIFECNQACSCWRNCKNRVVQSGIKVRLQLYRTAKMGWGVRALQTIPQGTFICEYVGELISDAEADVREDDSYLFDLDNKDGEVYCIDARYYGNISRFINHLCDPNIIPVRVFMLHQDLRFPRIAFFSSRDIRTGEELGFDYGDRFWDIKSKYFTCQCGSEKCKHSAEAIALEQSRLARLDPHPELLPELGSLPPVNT

[8] = target: Indolethylamine N-methyltransferase (Homo sapiens, UniProt O95050); assay: Inhibition of wild type human INMT expressed in Escherichia coli using tryptamine as substrate in presence of SAM incubated for 30 mins by MTase-Glo assay
[9] = system: U2OS; assay: Cytotoxicity against human U2OS cells at 100 uM after 48 hrs by CellTiter-Glo luminescent cell viability; assay type: cell-based

Sequence of Histone-lysine N-methyltransferase, H3 lysine-79 specific (Q8TEK3 whole entry): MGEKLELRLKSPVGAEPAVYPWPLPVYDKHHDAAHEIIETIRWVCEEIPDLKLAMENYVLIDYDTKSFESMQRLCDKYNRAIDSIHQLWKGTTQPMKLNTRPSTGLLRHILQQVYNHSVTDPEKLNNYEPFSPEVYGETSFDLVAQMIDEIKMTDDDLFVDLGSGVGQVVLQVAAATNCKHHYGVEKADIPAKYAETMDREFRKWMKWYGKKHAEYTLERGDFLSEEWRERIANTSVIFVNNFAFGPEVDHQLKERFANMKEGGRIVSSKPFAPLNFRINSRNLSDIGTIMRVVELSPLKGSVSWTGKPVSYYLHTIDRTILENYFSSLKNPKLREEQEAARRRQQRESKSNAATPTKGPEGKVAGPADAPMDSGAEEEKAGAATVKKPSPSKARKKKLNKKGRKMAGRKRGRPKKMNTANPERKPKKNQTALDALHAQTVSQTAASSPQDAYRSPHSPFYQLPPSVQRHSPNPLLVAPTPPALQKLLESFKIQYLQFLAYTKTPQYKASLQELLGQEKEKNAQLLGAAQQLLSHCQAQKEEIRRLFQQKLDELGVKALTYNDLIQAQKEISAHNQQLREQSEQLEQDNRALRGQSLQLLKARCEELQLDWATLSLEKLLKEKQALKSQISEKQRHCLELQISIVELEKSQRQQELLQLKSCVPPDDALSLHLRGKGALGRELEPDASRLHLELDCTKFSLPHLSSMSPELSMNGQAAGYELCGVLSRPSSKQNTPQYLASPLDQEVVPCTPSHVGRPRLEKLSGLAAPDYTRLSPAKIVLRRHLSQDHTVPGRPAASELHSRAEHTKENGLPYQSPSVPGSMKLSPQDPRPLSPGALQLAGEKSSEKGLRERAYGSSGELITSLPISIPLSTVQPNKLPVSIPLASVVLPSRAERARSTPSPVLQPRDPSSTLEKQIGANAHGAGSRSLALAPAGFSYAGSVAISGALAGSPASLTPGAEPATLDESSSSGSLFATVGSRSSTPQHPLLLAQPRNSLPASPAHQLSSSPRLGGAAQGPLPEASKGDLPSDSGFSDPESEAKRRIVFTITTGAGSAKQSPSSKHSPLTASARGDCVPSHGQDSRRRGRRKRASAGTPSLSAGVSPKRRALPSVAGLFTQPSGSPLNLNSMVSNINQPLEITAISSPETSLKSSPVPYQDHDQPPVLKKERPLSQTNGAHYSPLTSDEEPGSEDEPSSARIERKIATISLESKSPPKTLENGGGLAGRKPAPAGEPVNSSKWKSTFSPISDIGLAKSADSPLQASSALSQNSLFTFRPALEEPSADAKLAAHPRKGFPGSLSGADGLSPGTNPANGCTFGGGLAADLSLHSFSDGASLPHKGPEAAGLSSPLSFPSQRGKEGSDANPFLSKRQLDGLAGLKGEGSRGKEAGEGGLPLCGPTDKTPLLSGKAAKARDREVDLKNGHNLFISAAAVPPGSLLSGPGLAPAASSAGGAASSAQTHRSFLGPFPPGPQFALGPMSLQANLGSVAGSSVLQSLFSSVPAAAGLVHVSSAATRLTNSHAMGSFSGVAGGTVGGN
Sequence of Indolethylamine N-methyltransferase (O95050 whole entry): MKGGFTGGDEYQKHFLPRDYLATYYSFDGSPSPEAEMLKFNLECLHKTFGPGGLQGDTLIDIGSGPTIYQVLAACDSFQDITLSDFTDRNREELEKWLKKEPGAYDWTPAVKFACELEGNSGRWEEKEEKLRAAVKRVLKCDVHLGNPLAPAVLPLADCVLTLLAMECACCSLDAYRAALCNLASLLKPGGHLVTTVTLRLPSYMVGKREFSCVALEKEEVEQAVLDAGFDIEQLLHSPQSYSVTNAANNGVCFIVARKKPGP

NC(=O)c1cccc(C#C[C@@H](CC[C@H](N)C(=O)O)C[C@H]2O[C@@H](n3cnc4c(N)ncnc43)[C@H](O)[C@@H]2O)c1
inhibition at 0.75 h, 10 µM [1]: 26% | inhibition at 0.25 h, 1 µM [2]: 0% | inhibition at 0.75 h, 1 µM [3]: 0% | IC50 [4]: > 10 µM | IC50 [5]: > 10 µM | IC50 [6]: > 10 µM | IC50 [7]: > 10 µM | IC50 [8]: 3.4 µM | Activity [9]: Non-Toxic
